According to patent US20100234815A1, “STABLE MELT PROCESSABLE CHLORHEXIDINE COMPOSITIONS” (Teleflex Medical Incorporated, priority 2009, published 2010):
Values belong to the compound of their own block, whether it stands above or below them.

How the values were obtained:
Format in all cases: physicochemical
[1] = HPLC of chlorhexidine diacetate extracted from low melt temperature Tecoflex-93A compounded resin; conditions: for 4.289 peak (CHA) / RRT 0.6 (degradant) / RRT 1.3 (degradant) / RRT 1.6 (degradant): low melt temperature (LMT) Tecoflex-93A
Procedure: Low melting temperature Tecoflex-93A and chlorhexidine diacetate were separately fed into al 8 mm Leistritz twin screw intermeshing extruder from K-tron feeders at rates of 1 kg/hr and 0.1 kg/hr, respectively. The barrel zone temperatures were set at 121° C. for all zones. The extrudate was pelletized into small pellets.
(§1) Chlorhexidine diacetate content of the prepared samples was extracted with 1:1 tetrahydrofuran (THF): H2O and analyzed on the Agilent Eclipse XDB-CN 5u 4.6×150 mm column with guard column. Briefly, 2 centimeter (cm) sample segments were extracted with 5 mL of THF and 5 mL of H2O, vortexed, and centrifuged. HPLC analysis was run on an Agilent Eclipse XDB-CN 5u 4.6×150 mm column and 4.6×12.5 mm Eclipse XDB-CN guard column, with a mixture of deionized water, acetonitrile, and trifluoroacetic acid as the mobile phase. Concentrations of the analytes were determined via calibration curves.
(§2) In addition to the experimental conditions described with reference to FIG. 3, chlorhexidine diacetate compounded in low melt temperature Tecoflex-93A was subjected to melt temperatures ranging from about 131° C. to about 137° C. The concentration of the analytes was determined via a calibration curve as described in the following Table 2.

[2] = HPLC of CHA extracted from Versaflex CL30 compounded resin; conditions: for 4.1 peak (CHA) / RRT 0.6 (degradant) / RRT 1.3 (degradant) / RRT 1.6 (degradant): Versaflex CL30 compounded resin
Procedure: (§3) Versaflex® CL30 and chlorhexidine diacetate were separately fed into an 18 mm Leistritz twin screw intermeshing extruder from K-tron feeders at rates of 2.5 kg/hr and 0.25 kg/hr, respectively. The barrel zone temperatures were set from 131° C. thru 148° C. The extrudate was pelletized into small pellets.
as §1

[3] = HPLC of CHA extracted from co-extruded 7Fr single lumen tubing
Procedure: […] Co-extruded tubing was also analyzed for chlorhexidine degradants.
as §1

[4] = HPLC of chlorhexidine diacetate extracted from Tecothane-2095A compounded resin (thermal degradation on melt processing); conditions: for 4.1 peak (CHA) / RRT 0.6 (degradant) / RRT 1.3 (degradant) / RRT 1.6 (degradant): Tecothane-2095A compounded resin
From the text: Tecothane®-2095A was coated with 5% w/w polytetramethyleneoxide (PTMO) of molecular weight (MW)=1000 by mixing 45.1 gram (g) of PTMO with 900g Tecothane®-2095A. The PTMO coated resin and chlorhexidine diacetate were separately fed into an 18 millimeter (mm) Leistritz twin screw intermeshing extruder (Somerville, N.J.) from K-Tron feeders (Pitman, N.J.) at rates of 2.5 kilograms per hour (kg/hr) and 0.25 kg/hr, respectively. The extruder was set at 112 revolutions per minute (rpm) for screw speed and the barrel zone temperatures were set from 145° C. thru 178° C. The extrudate was pelletized into small pellets.
as §1
as §2, with “2,” for “3,”, “Tecothane 2095A” for “low melt temperature Tecoflex-93A”, “139°” for “131°”, “172°” for “137°”, “and the” for “The”, “1.” for “2.”

[5] = HPLC of CHA extracted from PVC compounded resin
Procedure: as §3, with “Separate samples of polyvinyl chloride (shore 65A and shore 85A respectively)” for “Versaflex® CL30”, “2.0” for “2.5”, “0.2” for “0.25”, “140°” for “131°”, “155°” for “148°”
as §1
as §2, with “7,” for “3,”, “polyvinyl chloride (Shore A hardness of […] & 85)” for “low melt temperature Tecoflex-93A”, “145°” for “131°”, “176°” for “137°”, “6.” for “2.”

[6] = HPLC of chlorhexidine dodecanoate extracted from LMT Tecoflex-93A compounded resin; conditions: for 4.289 peak (CHDD) / RRT 0.6 (degradant) / RRT 1.3 (degradant) / RRT 1.6 (degradant): LMT Tecoflex-93A compounded resin
[7] = co-extruded 7Fr single lumen, melt temp 135 °C (condition 1)
[8] = PVC 60A compounded resin, melt temp 145 °C (condition 1)
[9] = PVC 60A compounded resin, melt temp 154 °C (condition 2)
[10] = PVC 60A compounded resin, melt temp 159 °C (condition 3)
[11] = PVC 60A compounded resin, melt temp 165 °C (condition 4)
[12] = PVC 60A compounded resin, melt temp 171 °C (condition 5)
[13] = PVC 85A compounded resin, melt temp 155 °C (condition 1)
[14] = PVC 85A compounded resin, melt temp 159 °C (condition 2)
[15] = PVC 85A compounded resin, melt temp 163 °C (condition 3)
[16] = PVC 85A compounded resin, melt temp 167 °C (condition 4)
[17] = PVC 85A compounded resin, melt temp 170 °C (condition 5)
[18] = PVC 85A compounded resin, melt temp 176 °C (condition 6)

thermal degradation on melt processing (HPLC, FIG. 3) ([1]; compounded in low melt temperature Tecoflex-93A, melt temperature 136 °C, 280 nm): did not degrade
4.289 peak (CHA) ([1]; melt temp 131 °C (condition 1)): 100
RRT 0.6 (degradant) ([1]; melt temp 131 °C (condition 1)): Not detected
RRT 1.3 (degradant) ([1]; melt temp 131 °C (condition 1)): Not detected
RRT 1.6 (degradant) ([1]; melt temp 131 °C (condition 1)): Not detected
4.289 peak (CHA) ([1]; melt temp 137 °C (condition 2)): 100
RRT 0.6 (degradant) ([1]; melt temp 137 °C (condition 2)): Non-detected
RRT 1.3 (degradant) ([1]; melt temp 137 °C (condition 2)): Not detected
RRT 1.6 (degradant) ([1]; melt temp 137 °C (condition 2)): Not detected
stable processing temperature limit ([1]; with polyurethanes): about 137 °C
4.1 peak (CHA) ([2]; melt temp 101 °C (condition 1)): 100
RRT 0.6 (degradant) ([2]; melt temp 101 °C (condition 1)): Not detected
RRT 1.3 (degradant) ([2]; melt temp 101 °C (condition 1)): Not detected
RRT 1.6 (degradant) ([2]; melt temp 101 °C (condition 1)): Not detected
4.1 peak (CHA) ([2]; melt temp 121 °C (condition 2)): 100
RRT 0.6 (degradant) ([2]; melt temp 121 °C (condition 2)): Not detected
RRT 1.3 (degradant) ([2]; melt temp 121 °C (condition 2)): Not detected
RRT 1.6 (degradant) ([2]; melt temp 121 °C (condition 2)): Not detected
4.1 peak (CHA) ([2]; melt temp 129 °C (condition 3)): 100
RRT 0.6 (degradant) ([2]; melt temp 129 °C (condition 3)): Not detected
RRT 1.3 (degradant) ([2]; melt temp 129 °C (condition 3)): Not detected
RRT 1.6 (degradant) ([2]; melt temp 129 °C (condition 3)): Not detected
4.1 peak (CHA) ([2]; melt temp 139 °C (condition 4)): 100
RRT 0.6 (degradant) ([2]; melt temp 139 °C (condition 4)): Not detected
RRT 1.3 (degradant) ([2]; melt temp 139 °C (condition 4)): Not detected
RRT 1.6 (degradant) ([2]; melt temp 139 °C (condition 4)): Not detected
4.1 peak (CHA) ([2]; melt temp 144 °C (condition 5)): 100
RRT 0.6 (degradant) ([2]; melt temp 144 °C (condition 5)): Not detected
RRT 1.3 (degradant) ([2]; melt temp 144 °C (condition 5)): Not detected
RRT 1.6 (degradant) ([2]; melt temp 144 °C (condition 5)): Not detected
4.1 peak (CHA) ([2]; melt temp 149 °C (condition 6)): 100
RRT 0.6 (degradant) ([2]; melt temp 149 °C (condition 6)): Not detected
RRT 1.3 (degradant) ([2]; melt temp 149 °C (condition 6)): Not detected
RRT 1.6 (degradant) ([2]; melt temp 149 °C (condition 6)): Not detected
4.1 peak (CHA) ([2]; melt temp 153 °C (condition 7)): 100
RRT 0.6 (degradant) ([2]; melt temp 153 °C (condition 7)): Not detected
RRT 1.3 (degradant) ([2]; melt temp 153 °C (condition 7)): Not detected
RRT 1.6 (degradant) ([2]; melt temp 153 °C (condition 7)): Not detected
4.1 peak (CHA) ([2]; melt temp 161 °C (condition 8)): 100
RRT 0.6 (degradant) ([2]; melt temp 161 °C (condition 8)): Not detected
RRT 1.3 (degradant) ([2]; melt temp 161 °C (condition 8)): Not detected
RRT 1.6 (degradant) ([2]; melt temp 161 °C (condition 8)): Not detected
4.289 peak (CHA) [3, 7]: 100
RRT 0.6 (degradant) [3, 7]: Not detected
RRT 1.3 (degradant) [3, 7]: Not detected
RRT 1.6 (degradant) [3, 7]: Not detected
stable processing temperature limit ([3]; with polyurethanes, from Table 4 (co-extruded 7Fr single lumen)): at least 135 °C
4.1 peak (CHA) ([4]; melt temp 139 °C (condition 1)): 89%
RRT 0.6 (degradant) ([4]; melt temp 139 °C (condition 1)): 3%
RRT 1.3 (degradant) ([4]; melt temp 139 °C (condition 1)): 8%
RRT 1.6 (degradant) ([4]; melt temp 139 °C (condition 1)): 1%
4.1 peak (CHA) ([4]; melt temp 142 °C (condition 2)): 88%
RRT 0.6 (degradant) ([4]; melt temp 142 °C (condition 2)): 3%
RRT 1.3 (degradant) ([4]; melt temp 142 °C (condition 2)): 8%
RRT 1.6 (degradant) ([4]; melt temp 142 °C (condition 2)): 1%
4.1 peak (CHA) ([4]; melt temp 144 °C (condition 3)): 84%
RRT 0.6 (degradant) ([4]; melt temp 144 °C (condition 3)): 4%
RRT 1.3 (degradant) ([4]; melt temp 144 °C (condition 3)): 11%
RRT 1.6 (degradant) ([4]; melt temp 144 °C (condition 3)): 1%
4.1 peak (CHA) ([4]; melt temp 172 °C (condition 4)): 77%
RRT 0.6 (degradant) ([4]; melt temp 172 °C (condition 4)): 7%
RRT 1.3 (degradant) ([4]; melt temp 172 °C (condition 4)): 13%
RRT 1.6 (degradant) ([4]; melt temp 172 °C (condition 4)): 3%
thermal degradation on melt processing (HPLC, FIG. 2) ([4]; compounded in Tecothane 2095A, melt temperature 164 °C, 280 nm): degrades into several products
% Peak area (degradant) [5, 8]: Not detected
% Peak area CHA [5, 8]: 100%
% Peak area (degradant) [5, 9]: Not detected
% Peak area CHA [5, 9]: 100%
% Peak area (degradant) [5, 10]: Not detected
% Peak area CHA [5, 10]: 100%
% Peak area (degradant) [5, 11]: Not detected
% Peak area CHA [5, 11]: 100%
% Peak area (degradant) [5, 12]: 0.4%
% Peak area CHA [5, 12]: 99.6%
% Peak area (degradant) [5, 13]: Not detected
% Peak area CHA [5, 13]: 100%
% Peak area (degradant) [5, 14]: Not detected
% Peak area CHA [5, 14]: 100%
% Peak area (degradant) [5, 15]: Not detected
% Peak area CHA [5, 15]: 100%
% Peak area (degradant) [5, 16]: 0.4%
% Peak area CHA [5, 16]: 99.6%
% Peak area (degradant) [5, 17]: 0.3%
% Peak area CHA [5, 17]: 99.7%
% Peak area (degradant) [5, 18]: 0.7%
% Peak area CHA [5, 18]: 99.3%
thermal degradation on melt processing (HPLC, FIG. 5) ([5]; compounded in polyvinyl chloride (Shore A hardness of 65), melt temperature 145 °C, 280 nm): did not degrade
thermal degradation on melt processing (HPLC, FIG. 6) ([5]; compounded in polyvinyl chloride (Shore A hardness of 85), melt temperature 155 °C, 280 nm): did not degrade
amount of degradant generated (HPLC, FIG. 7) ([5]; compounded in polyvinyl chloride (Shore A hardness of 85), processed at 176 °C, 280 nm): less than 1%
Structure (SMILES): CC(=O)O.CC(=O)O.NC(=N\CCCCCC/N=C(N)/N=C(\N)Nc1ccc(Cl)cc1)/N=C(\N)Nc1ccc(Cl)cc1 [CHA, chlorhexidine diacetate]

processing temperature at which thermally stable ([2]; with polyolefin thermoplastic elastomers (Versaflex CL30)): up to 161 °C
processing temperature at which thermally stable ([5]; with vinyl polymers (PVC 60A & 85A)): ≤ 165 °C
Structure (SMILES): [H]/N=C(\N/C(=N/[H])NCCCCCCNC(=N)NC(=N)Nc1ccc(Cl)cc1)Nc1ccc(Cl)cc1 [chlorhexidine]

Structure (SMILES): CCCCCCCCCCCC(=O)O.NC(=NCCCCCCN=C(N)N=C(N)Nc1ccc(Cl)cc1)N=C(N)Nc1ccc(Cl)cc1 [CHDD, chlorhexidine dodecanoate]
4.289 peak (CHDD) ([6]; melt temp 132 °C (condition 1)): 100
RRT 0.6 (degradant) ([6]; melt temp 132 °C (condition 1)): Non-detected
RRT 1.3 (degradant) ([6]; melt temp 132 °C (condition 1)): Not detected
RRT 1.6 (degradant) ([6]; melt temp 132 °C (condition 1)): Not detected
4.289 peak (CHDD) ([6]; melt temp 136 °C (condition 2)): 100
RRT 0.6 (degradant) ([6]; melt temp 136 °C (condition 2)): Non-detected
RRT 1.3 (degradant) ([6]; melt temp 136 °C (condition 2)): Not detected
RRT 1.6 (degradant) ([6]; melt temp 136 °C (condition 2)): Not detected
thermal degradation on melt processing (HPLC, FIG. 4) ([6]; compounded in low melt temperature Tecoflex-93A, melt temperature 137 °C, 280 nm): did not degrade
stable processing temperature limit ([6]; with polyurethanes): at least 136 °C
